Laboratory results reported in PMC4631641 (The Journal of nutritional biochemistry, 2015).

Molecular target: T1, holocarboxylase synthetase (HLCS) (Homo sapiens, UniProt P50747)
T1 sequence (P50747 1-726): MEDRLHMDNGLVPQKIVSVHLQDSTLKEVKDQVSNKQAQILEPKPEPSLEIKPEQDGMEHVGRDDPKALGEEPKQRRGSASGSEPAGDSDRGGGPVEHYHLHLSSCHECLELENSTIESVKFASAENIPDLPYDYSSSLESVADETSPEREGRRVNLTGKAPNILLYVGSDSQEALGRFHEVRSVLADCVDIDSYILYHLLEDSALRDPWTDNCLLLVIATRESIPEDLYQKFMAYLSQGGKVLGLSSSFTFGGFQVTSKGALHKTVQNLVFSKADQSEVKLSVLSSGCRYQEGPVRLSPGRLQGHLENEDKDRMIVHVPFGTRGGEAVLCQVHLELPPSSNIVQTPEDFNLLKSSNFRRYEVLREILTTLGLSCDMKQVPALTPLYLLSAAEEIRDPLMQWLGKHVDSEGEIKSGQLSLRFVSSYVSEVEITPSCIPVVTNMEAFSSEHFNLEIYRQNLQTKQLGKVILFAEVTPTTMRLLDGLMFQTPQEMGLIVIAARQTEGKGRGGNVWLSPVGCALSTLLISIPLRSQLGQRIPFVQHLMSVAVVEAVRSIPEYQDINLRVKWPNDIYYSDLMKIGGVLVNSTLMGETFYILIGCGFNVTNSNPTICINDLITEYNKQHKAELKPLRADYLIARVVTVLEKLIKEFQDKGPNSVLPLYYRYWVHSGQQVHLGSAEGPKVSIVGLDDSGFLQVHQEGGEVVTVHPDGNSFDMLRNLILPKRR
Test: gel-based p67 biotinylation assay with purified rHLCS, dose-response
Type: biochemical

| Compound | IC50 |
| --- | --- |
| OC[C@H]1O[C@@H](Oc2cc(O)cc(/C=C/c3ccc(O)cc3)c2)[C@H](O)[C@@H](O)[C@@H]1O [Piceid] | 21.3 ± 0.014 µM |
| Oc1cc(O)cc(/C=C/c2ccc(O)c(O)c2)c1 [Piceatannol] | 0.28 µM |
| Oc1ccc(/C=C/c2cc(O)cc(O)c2)cc1 [Resveratrol] | 3.7 ± 0.0085 µM |
